Like-named read-outs stand apart in the source and are kept apart here.
Key:
Test in all cases: Test A pre/postemergence
Assay type in all cases: in vivo
[1] = test system: redroot pigweed (Amaranthus retroflexus); settings: for pest or weed control at 125 g/ha / pest or weed control at 500 g/ha: Amaranthus retroflexus, 240 h, read-out: Plant response rating, Pigweed
Summary of the method: (§1)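 Seeds in loam–sand blend received preemergence directed soil spray and, concurrently, postemergence application (plants 2–10 cm, 1–2-leaf stage) of compound in non-phytotoxic solvent with surfactant. After about ten days in greenhouse, injury rated visually versus untreated controls, 0 (no effect) to 100 (complete control).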

[2] = test system: giant foxtail (Setaria faberi); settings: for pest or weed control at 125 g/ha / pest or weed control at 500 g/ha: Setaria faberi, 240 h, read-out: Plant response rating, Foxtail, Giant
Summary of the method: as §1

[3] = test system: barnyardgrass (Echinochloa crus-galli); settings: for pest or weed control at 125 g/ha / pest or weed control at 500 g/ha: Echinochloa crus-galli, 240 h, read-out: Plant response rating, Barnyardgrass
Summary of the method: as §1

[4] = test system: velvetleaf (Abutilon theophrasti); settings: for pest or weed control at 125 g/ha / pest or weed control at 500 g/ha: Abutilon theophrasti, 240 h, read-out: Plant response rating, Velvetleaf
Summary of the method: as §1

[5] = test system: crabgrass (Digitaria sanguinalis); settings: for pest or weed control at 125 g/ha / pest or weed control at 500 g/ha: Digitaria sanguinalis, 240 h, read-out: Plant response rating, Crabgrass
Summary of the method: as §1

[6] = test system: morningglory (Ipomoea spp.); settings: for pest or weed control at 125 g/ha / pest or weed control at 500 g/ha: Ipomoea, 240 h, read-out: Plant response rating, Morningglory
Summary of the method: as §1

[7] = Postemergence, 125 g ai/ha, 0 to 100 scale (0 no effect, 100 complete control)
[8] = Postemergence, 500 g ai/ha, 0 to 100 scale (0 no effect, 100 complete control)
[9] = Preemergence, 125 g ai/ha, 0 to 100 scale where 0 is no effect and 100 is complete control, approximately ten days
[10] = Preemergence, 500 g ai/ha, 0 to 100 scale where 0 is no effect and 100 is complete control, approximately ten days
[11] = post-emergence, Postemergence, 125 g ai/ha, 0 to 100 scale (0 no effect, 100 complete control)
[12] = post-emergence, Postemergence, 500 g ai/ha, 0 to 100 scale (0 no effect, 100 complete control)
[13] = pre-emergence, Preemergence, 125 g ai/ha, 0 to 100 scale where 0 is no effect and 100 is complete control, approximately ten days
[14] = pre-emergence, Preemergence, 500 g ai/ha, 0 to 100 scale where 0 is no effect and 100 is complete control, approximately ten days

## CCOC(=O)c1nc(-c2ccccc2F)nc(N)c1Cl [Compound 106]
[1]; [7]
  Plant response rating, Pigweed: 15
[1]; [8]
  Plant response rating, Pigweed: 70
[1]; [9]
  Plant response rating, Pigweed: 0
[1]; [10]
  Plant response rating, Pigweed: 30
[2]; [7]
  Plant response rating, Foxtail, Giant: 0
[2]; [8]
  Plant response rating, Foxtail, Giant: 0
[2]; [9]
  Plant response rating, Foxtail, Giant: 0
[2]; [10]
  Plant response rating, Foxtail, Giant: 0
[3]; [7]
  Plant response rating, Barnyardgrass: 0
[3]; [8]
  Plant response rating, Barnyardgrass: 5
[3]; [9]
  Plant response rating, Barnyardgrass: 0
[3]; [10]
  Plant response rating, Barnyardgrass: 5
[4]; [7]
  Plant response rating, Velvetleaf: 25
[4]; [8]
  Plant response rating, Velvetleaf: 55
[4]; [9]
  Plant response rating, Velvetleaf: 5
[4]; [10]
  Plant response rating, Velvetleaf: 30
[5]; [7]
  Plant response rating, Crabgrass: 0
[5]; [8]
  Plant response rating, Crabgrass: 0
[5]; [9]
  Plant response rating, Crabgrass: 0
[5]; [10]
  Plant response rating, Crabgrass: 0
[6]; [7]
  Plant response rating, Morningglory: 20
[6]; [8]
  Plant response rating, Morningglory: 35
[6]; [9]
  Plant response rating, Morningglory: 0
[6]; [10]
  Plant response rating, Morningglory: 0

## CNC(=O)c1nc(C2CC2)nc(N)c1Cl [Compound 81]
[1]; [11]
  pest or weed control at 125 g/ha: 55%
[1]; [12]
  pest or weed control at 500 g/ha: 75%
[1]; [13]
  pest or weed control at 125 g/ha: 60%
[1]; [14]
  pest or weed control at 500 g/ha: 70%
[2]; [11]
  pest or weed control at 125 g/ha: 0%
[2]; [12]
  pest or weed control at 500 g/ha: 30%
[2]; [13]
  pest or weed control at 125 g/ha: 0%
[2]; [14]
  pest or weed control at 500 g/ha: 10%
[3]; [11]
  pest or weed control at 125 g/ha: 0%
[3]; [12]
  pest or weed control at 500 g/ha: 30%
[3]; [13]
  pest or weed control at 125 g/ha: 10%
[3]; [14]
  pest or weed control at 500 g/ha: 20%
[4]; [11]
  pest or weed control at 125 g/ha: 50%
[4]; [12]
  pest or weed control at 500 g/ha: 75%
[4]; [13]
  pest or weed control at 125 g/ha: 20%
[4]; [14]
  pest or weed control at 500 g/ha: 40%
[5]; [11]
  pest or weed control at 125 g/ha: 0%
[5]; [12]
  pest or weed control at 500 g/ha: 10%
[5]; [13]
  pest or weed control at 125 g/ha: 0%
[5]; [14]
  pest or weed control at 500 g/ha: 10%
[6]; [11]
  pest or weed control at 125 g/ha: 50%
[6]; [12]
  pest or weed control at 500 g/ha: 80%
[6]; [13]
  pest or weed control at 125 g/ha: 0%
[6]; [14]
  pest or weed control at 500 g/ha: 50%

## CCOC(=O)c1nc(-c2cc(Br)cc(OC)c2)nc(N)c1Cl [Compound 101]
[1]; [7]
  Plant response rating, Pigweed: 0
[1]; [8]
  Plant response rating, Pigweed: 5
[1]; [9]
  Plant response rating, Pigweed: 0
[1]; [10]
  Plant response rating, Pigweed: 0
[2]; [7]
  Plant response rating, Foxtail, Giant: 0
[2]; [8]
  Plant response rating, Foxtail, Giant: 0
[2]; [9]
  Plant response rating, Foxtail, Giant: 0
[2]; [10]
  Plant response rating, Foxtail, Giant: 0
[3]; [7]
  Plant response rating, Barnyardgrass: 0
[3]; [8]
  Plant response rating, Barnyardgrass: 0
[3]; [9]
  Plant response rating, Barnyardgrass: 0
[3]; [10]
  Plant response rating, Barnyardgrass: 0
[4]; [7]
  Plant response rating, Velvetleaf: 0
[4]; [8]
  Plant response rating, Velvetleaf: 15
[4]; [9]
  Plant response rating, Velvetleaf: 0
[4]; [10]
  Plant response rating, Velvetleaf: 0
[5]; [7]
  Plant response rating, Crabgrass: 0
[5]; [8]
  Plant response rating, Crabgrass: 0
[5]; [9]
  Plant response rating, Crabgrass: 0
[5]; [10]
  Plant response rating, Crabgrass: 0
[6]; [7]
  Plant response rating, Morningglory: 0
[6]; [8]
  Plant response rating, Morningglory: 0
[6]; [9]
  Plant response rating, Morningglory: 0
[6]; [10]
  Plant response rating, Morningglory: 0
